Experimental data as given in the NIST ThermoML archive (doi:10.1016/j.jct.2016.03.016).

Test: mn = molality of the nth substance listed, in mol/kg
Settings: 100 kPa, Liquid; for speed of sound: Frequency=3 MHz, Sing-around technique in a fixed-path interferometer; for mass density: Vibrating tube method

CC(C)Cc1ccc(C(C)C(=O)[O-])cc1.[Na+] (stereo not given) [sodium ibuprofen] + O
Settings	mass density, 288.15 K [kg/m3]	mass density, 293.15 K [kg/m3]	mass density, 298.15 K [kg/m3]	mass density, 303.15 K [kg/m3]	mass density, 308.15 K [kg/m3]	speed of sound, 288.15 K [m/s]	speed of sound, 293.15 K [m/s]	speed of sound, 298.15 K [m/s]	speed of sound, 303.15 K [m/s]	speed of sound, 308.15 K [m/s]
m1 = 0.05	1003.2	1002.24	1001.03	999.585	997.921	1477.5	1492.8	1506	1517.7	1527.8
m1 = 0.15	1007.46	1006.39	1005.07	1003.52	1001.77	1496.9	1510.7	1522.9	1533.4	1542.4
m1 = 0.25	1010.79	1009.6	1008.17	1006.53	1004.69	1510.2	1522.3	1533.1	1542.4	1550.3
m1 = 0.35	1015.17	1013.83	1012.29	1010.55	1008.62	1518.1	1529.1	1538.9	1547.4	1554.5
